“And” between values parts separate entries of the source, which are not always exact repeats. Identical values can stand only once.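 48-hour exposure; five concentrations; linearly interpolated endpoints. Abbreviation: GI50, concentration required for 50% inhibition of growth. TGI: total growth inhibition.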
Key:
Experiment in all cases: NCI-60 cell line screen, 48 h
SW-620 colon = tested on: SW-620 colon
OVCAR-5 ovarian = tested on: OVCAR-5 ovarian
M14 melanoma = tested on: M14 melanoma
COLO 205 colon = tested on: COLO 205 colon
OVCAR-3 ovarian = tested on: OVCAR-3 ovarian
CCRF-CEM leukemia = tested on: CCRF-CEM leukemia
HL-60(TB) leukemia = tested on: HL-60(TB) leukemia
HCT-116 colon = tested on: HCT-116 colon
DLD-1 colon = tested on: DLD-1 colon
SNB-78 CNS = tested on: SNB-78 CNS

Structure (SMILES)	GI50 (SW-620 colon)	TGI (SW-620 colon)	GI50 (OVCAR-5 ovarian)	TGI (OVCAR-5 ovarian)	GI50 (M14 melanoma)	TGI (M14 melanoma)	GI50 (COLO 205 colon)	TGI (COLO 205 colon)	GI50 (OVCAR-3 ovarian)	TGI (OVCAR-3 ovarian)	GI50 (CCRF-CEM leukemia)	TGI (CCRF-CEM leukemia)	GI50 (HL-60(TB) leukemia)	TGI (HL-60(TB) leukemia)	GI50 (HCT-116 colon)	TGI (HCT-116 colon)	TGI (DLD-1 colon)	TGI (SNB-78 CNS)
CCCCOC(=O)/C=C\C(=O)NC(N)=O	14.5 µM	32.3 µM	25.6 µM	81.7 µM	17.2 µM	36.6 µM	14 µM	29.1 µM	13 µM	26.2 µM	15.9 µM	35.8 µM	22.8 µM	49.9 µM	13.4 µM	27.8 µM		
Clc1ccc(-c2nc3c(-c4ccccc4)nc(-c4ccccc4)cn3c2-c2ccc(Cl)cc2)cc1	> 100 µM	> 100 µM	> 100 µM	> 100 µM	> 100 µM	> 100 µM	> 100 µM	> 100 µM	> 100 µM	> 100 µM	> 100 µM	> 100 µM	> 100 µM	> 100 µM	> 100 µM	> 100 µM		
COc1ccc(C2=NN(C=O)C(c3ccc(OS(=O)(=O)c4ccc(C)cc4)c(OC)c3)C2)cc1 (stereo unspecified)	5.31 µM	> 100 µM	> 100 µM	> 100 µM	3.92 µM	> 100 µM	8.44 µM	> 100 µM	5.6 µM	> 100 µM	4.05 µM	> 100 µM	2.56 µM	> 100 µM	4.56 µM	> 100 µM		
Cn1nc(-c2ccccc2)c2c(/C=C/c3ccc(Cl)cc3)onc2c1=O		> 100 µM				> 100 µM		> 100 µM				> 100 µM				28.4 µM	> 100 µM	
NC(CP(=O)(O)O)C(=O)O (stereo unspecified)		> 100 µM		> 100 µM		> 100 µM		> 100 µM		> 100 µM		> 100 µM		> 100 µM		> 100 µM		
CCSc1nc(NC(C)c2ccccc2)c2cnn(CO)c2n1 (stereo unspecified)	67.9 µM	> 100 µM	> 100 µM	> 100 µM	> 100 µM	> 100 µM	> 100 µM	> 100 µM	64.7 µM	> 100 µM	> 100 µM	> 100 µM	> 100 µM	> 100 µM	> 100 µM	> 100 µM		
NC(=O)c1cc(I)ccc1NC(=O)/C=C/c1ccccc1Cl	0.462 µM	> 39.6 µM	3.8 µM	37.2 µM	0.621 µM	24.8 µM	0.651 µM	5.7 µM	0.271 µM	0.638 µM	0.363 µM		0.158 µM	0.631 µM	0.465 µM	11.9 µM		
COc1ccc(NC(=S)C#N)cc1		> 100 µM		> 100 µM		> 100 µM		> 100 µM		> 100 µM		> 100 µM		> 100 µM		> 100 µM		
CON=C1C[C@]2(C[C@@H]3C[C@@H](C/C=C(\C)C[C@@H](C)/C=C/C=C4\CO[C@@H]5[C@H](O)C(C)=C[C@@H](C(=O)O3)[C@]45O)O2)O[C@H](/C(C)=C/C(C)C)[C@H]1C	11.8 µM	25.3 µM	18.1 µM	37.4 µM	16.1 µM	33.1 µM	13.7 µM	28.5 µM	4.45 µM	15.8 µM	7.65 µM	34.3 µM	2.48 µM	5.92 µM	5.44 µM	19 µM		
Cc1cc2nc3c(=O)[nH]c(=O)nc-3n(CC(O)C(O)C(O)CO)c2cc1N (stereo unspecified)		> 100 µM				> 100 µM		> 100 µM		> 100 µM		> 100 µM		> 100 µM		> 100 µM		> 100 µM
c1ccc(COCC[P+](c2ccccc2)(c2ccccc2)c2ccccc2)cc1	1.83 µM	37.7 µM	2.85 µM	> 100 µM	2.12 µM	13.4 µM	0.868 µM	3.65 µM	1.07 µM	17.8 µM	1.36 µM	14.1 µM	0.29 µM	1.39 µM	0.679 µM	12.5 µM		
O=C(CN1CCN(CCN2C(=O)c3cccc4cccc(c34)C2=O)CC1)Nc1ccc2ncsc2c1	3.19 µM	19.3 µM	10.5 µM	> 100 µM	8.63 µM	22.2 µM	5.44 µM	54.6 µM	7.34 µM	21.5 µM	5.4 µM	53 µM	10.2 µM	27.5 µM	3.57 µM	16.4 µM		
O=C1c2cccc([N+](=O)[O-])c2C(=O)c2nccnc21		3.92 µM		9.6 µM		2.96 µM				3.88 µM		5.65 µM		4.81 µM		3.66 µM	11.4 µM	7.38 µM
CS(=O)(=O)O[C@H]1C(=O)N(c2cc3c4ccccc4ccc3c3ccccc23)[C@@H]1c1ccccn1	0.401 µM	> 100 µM	0.711 µM	> 100 µM	0.317 µM	5.23 µM	0.398 µM	1.95 µM	0.411 µM	14.9 µM	0.515 µM	> 100 µM	0.309 µM	> 100 µM	0.372 µM	23 µM		
CCOC(=O)C1=C(C)NC(C)=C(C(=O)OCCNC(=O)c2ccc(N=[N+]=[N-])cc2)C1c1ccccc1C(F)(F)F (stereo unspecified)		21.5 µM		21.5 µM		21.5 µM		11 µM		21.5 µM		21.5 µM		14.7 µM		21.5 µM		
O=C(NCCCl)NCCN1c2nc3ccccc3cc2Sc2cc3ccccc3nc21	1.16 µM	2.95 µM	4.24 µM	> 44.5 µM	1.77 µM	6.73 µM	1.32 µM	2.66 µM	1.45 µM	16.1 µM	0.3 µM	3.62 µM	1.71 µM	5.12 µM	0.8 µM	3.43 µM		
CC(=O)NC(CS)C(=O)O (stereo unspecified)	> 100 µM	> 100 µM	> 100 µM	> 100 µM and 66200 µM	> 100 µM	> 100 µM and 35500 µM	> 100 µM	> 100 µM	> 100 µM	> 100 µM and 58500 µM		> 100 µM	> 100 µM	> 100 µM	> 100 µM	> 100 µM and 52800 µM		

Source: PubChem BioAssay (NCI)
